From US9315505B2, “Heterocyclic compounds and uses thereof” (INTELLIKINE LLC, priority 2009, dated 2016) come the findings set out here.

In one assay the target is T1, PI3K α (Homo sapiens, UniProt P42336).
T1 construct: purchased Upstate
Description: In vitro IC50, PI3K α (p110α/p85α inhibition assay). Format: biochemical. Particulars: in vitro kinase assay; read-out: IC50(nM) PI3K α. In short, it runs like this: (§1)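 Lipid kinase reactions ran with phosphatidylinositol (100 μg/ml) in HEPES pH 7.4/MgCl2 and γ-32P-ATP at 10 or 100 μM for 5 min at room temperature, with 2% DMSO; products were separated by TLC and quantified by phosphorimager. A membrane capture format or HTRF (10 uM PIP2, 10 uM ATP, 1 h) were alternatives.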

The target in another assay is T2, PI3K δ (Homo sapiens, UniProt O00329).
T2 construct: purchased Upstate
Description: In vitro IC50, PI3K δ (p110δ/p85α inhibition assay). Format: biochemical. Particulars: in vitro kinase assay; read-out: IC50(nM) PI3K δ. Summed up:
as §1

The next assay deals with Balb/c splenic B cells. Description: B cell activation and proliferation assay (Alamar Blue). Particulars: Mus musculus, read-out: B cell proliferation EC50. Format: cell-based. As for the experimental part:
The ability of one or more subject compounds to inhibit B cell activation and proliferation is determined according to standard procedures known in the art. For example, an in vitro cellular proliferation assay is established that measures the metabolic activity of live cells. The assay is performed in a 96 well microtiter plate using Alamar Blue reduction. Balb/c splenic B cells are purified over a Ficoll-Paque™ PLUS gradient followed by magnetic cell separation using a MACS B cell Isolation Kit (Miletenyi). Cells are plated in 90 ul at 50,000 cells/well in B Cell Media (RPMI+10% FBS+Penn/Strep+50 uM bME+5 mM HEPES). A compound disclosed herein is diluted in B Cell Media and added in a 10 ul volume. Plates are incubated for 30 min at 37 C and 5% CO2 (0.2% DMSO final concentration). A 50 ul B cell stimulation cocktail is then added containing either 10 ug/ml LPS or 5 ug/ml F(ab′)2 Donkey anti-mouse IgM plus 2 ng/ml recombinant mouse IL4 in B Cell Media. Plates are incubated for 72 hours at 37° C. and 5% CO2. A volume of 15 uL of Alamar Blue reagent is added to each well and plates are incubated for 5 hours at 37 C and 5% CO2. Alamar Blue fluoresce is read at 560Ex/590Em, and IC50 or EC50 values are calculated using GraphPad Prism 5.
For orientation: The colour change of resazurin is a common sign of viable cells or microbes.

The target in another assay is T3, PI3K γ (Homo sapiens, UniProt P48736).
T3 construct: purchased Sigma
In words: In vitro IC50, PI3K γ (p110γ inhibition assay). Format: biochemical. The settings on record: in vitro kinase assay. In short, it runs like this:
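Recombinant p110γ assayed with phosphatidylinositol (100 μg/ml) in 25 mM HEPES pH 7.4, 10 mM MgCl2, 2% DMSO; γ-32P-ATP at 10 or 100 μM, 5 min at room temperature, lipid product resolved by TLC and phosphorimaged. IC50 from 10–12 two-fold inhibitor dilutions, top typically 200 μM.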

For orientation: IC50 means the point on the concentration scale where inhibition reaches its midpoint.

T1 sequence (P42336 whole entry): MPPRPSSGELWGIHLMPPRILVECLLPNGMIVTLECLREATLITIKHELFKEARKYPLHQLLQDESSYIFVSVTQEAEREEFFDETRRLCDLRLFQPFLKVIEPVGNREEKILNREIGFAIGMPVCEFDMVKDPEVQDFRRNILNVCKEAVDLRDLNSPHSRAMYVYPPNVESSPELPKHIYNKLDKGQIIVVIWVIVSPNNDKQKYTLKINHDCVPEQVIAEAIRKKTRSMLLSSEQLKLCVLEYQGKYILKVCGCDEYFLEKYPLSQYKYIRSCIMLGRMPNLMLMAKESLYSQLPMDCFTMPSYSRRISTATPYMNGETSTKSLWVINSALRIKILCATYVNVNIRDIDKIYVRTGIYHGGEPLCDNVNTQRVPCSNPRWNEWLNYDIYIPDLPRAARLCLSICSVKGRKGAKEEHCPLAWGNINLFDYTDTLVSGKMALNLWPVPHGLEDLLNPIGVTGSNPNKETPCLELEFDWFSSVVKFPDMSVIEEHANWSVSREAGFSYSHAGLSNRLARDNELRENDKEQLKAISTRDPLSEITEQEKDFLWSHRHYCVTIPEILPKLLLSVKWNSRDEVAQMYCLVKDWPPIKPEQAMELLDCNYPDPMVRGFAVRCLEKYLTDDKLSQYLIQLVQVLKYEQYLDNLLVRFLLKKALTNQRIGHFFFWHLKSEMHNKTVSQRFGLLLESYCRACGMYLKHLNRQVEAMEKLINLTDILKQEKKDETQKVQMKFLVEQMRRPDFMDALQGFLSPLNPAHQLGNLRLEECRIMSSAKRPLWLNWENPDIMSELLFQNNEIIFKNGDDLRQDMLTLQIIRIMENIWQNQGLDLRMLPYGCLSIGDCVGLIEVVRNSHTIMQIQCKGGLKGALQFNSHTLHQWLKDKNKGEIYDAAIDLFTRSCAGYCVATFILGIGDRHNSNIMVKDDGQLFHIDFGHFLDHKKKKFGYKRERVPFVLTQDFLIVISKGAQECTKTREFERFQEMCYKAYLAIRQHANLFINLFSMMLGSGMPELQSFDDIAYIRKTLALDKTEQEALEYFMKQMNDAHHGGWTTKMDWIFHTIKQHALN
T1 sequence (P27986 whole entry partner): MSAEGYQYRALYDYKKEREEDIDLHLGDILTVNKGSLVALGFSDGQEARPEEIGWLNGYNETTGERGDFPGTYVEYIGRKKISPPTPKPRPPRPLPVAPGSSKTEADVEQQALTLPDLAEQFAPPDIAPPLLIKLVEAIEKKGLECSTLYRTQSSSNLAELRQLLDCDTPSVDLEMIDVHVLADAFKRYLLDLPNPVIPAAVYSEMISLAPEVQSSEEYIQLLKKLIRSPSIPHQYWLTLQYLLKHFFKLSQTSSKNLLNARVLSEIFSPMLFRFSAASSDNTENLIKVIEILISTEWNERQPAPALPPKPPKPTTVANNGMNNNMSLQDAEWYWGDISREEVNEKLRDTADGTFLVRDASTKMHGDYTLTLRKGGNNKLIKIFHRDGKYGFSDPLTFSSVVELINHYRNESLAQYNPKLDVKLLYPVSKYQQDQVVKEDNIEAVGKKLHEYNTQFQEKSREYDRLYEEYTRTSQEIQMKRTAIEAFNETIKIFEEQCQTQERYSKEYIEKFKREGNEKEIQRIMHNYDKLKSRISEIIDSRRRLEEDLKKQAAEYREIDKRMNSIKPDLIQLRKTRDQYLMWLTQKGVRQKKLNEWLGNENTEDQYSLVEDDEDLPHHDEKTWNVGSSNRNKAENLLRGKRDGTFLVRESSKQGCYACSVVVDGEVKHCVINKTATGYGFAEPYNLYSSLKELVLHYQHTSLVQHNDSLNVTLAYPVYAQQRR
T2 sequence (O00329 whole entry): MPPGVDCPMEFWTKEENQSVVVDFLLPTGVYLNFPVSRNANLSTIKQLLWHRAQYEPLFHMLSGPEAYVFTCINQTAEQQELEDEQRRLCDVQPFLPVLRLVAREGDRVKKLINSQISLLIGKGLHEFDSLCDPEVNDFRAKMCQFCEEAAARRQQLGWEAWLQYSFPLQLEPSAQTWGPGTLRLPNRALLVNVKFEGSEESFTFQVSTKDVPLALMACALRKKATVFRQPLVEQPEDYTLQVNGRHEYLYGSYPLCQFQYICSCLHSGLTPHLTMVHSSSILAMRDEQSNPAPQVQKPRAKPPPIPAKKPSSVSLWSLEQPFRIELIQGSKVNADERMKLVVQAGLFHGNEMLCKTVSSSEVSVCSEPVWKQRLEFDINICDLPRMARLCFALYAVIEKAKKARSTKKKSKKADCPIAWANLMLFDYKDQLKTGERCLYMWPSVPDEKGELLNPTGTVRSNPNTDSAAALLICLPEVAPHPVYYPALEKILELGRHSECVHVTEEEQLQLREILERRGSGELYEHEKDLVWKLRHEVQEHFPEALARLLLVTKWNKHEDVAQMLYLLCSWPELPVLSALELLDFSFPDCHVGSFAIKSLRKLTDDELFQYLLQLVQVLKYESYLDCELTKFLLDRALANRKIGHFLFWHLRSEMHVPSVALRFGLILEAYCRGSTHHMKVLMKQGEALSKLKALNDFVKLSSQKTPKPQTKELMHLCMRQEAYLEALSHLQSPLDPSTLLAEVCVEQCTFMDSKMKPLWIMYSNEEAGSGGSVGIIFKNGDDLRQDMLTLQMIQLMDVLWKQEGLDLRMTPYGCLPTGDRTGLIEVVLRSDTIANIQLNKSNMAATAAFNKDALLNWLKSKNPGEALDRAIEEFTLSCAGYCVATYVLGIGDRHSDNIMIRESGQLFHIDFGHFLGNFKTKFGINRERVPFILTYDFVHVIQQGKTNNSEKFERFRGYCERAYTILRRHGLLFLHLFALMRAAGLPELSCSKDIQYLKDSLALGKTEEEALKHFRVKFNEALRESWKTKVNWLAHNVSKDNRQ
T2 sequence (P27986 whole entry partner): as the sequence (P27986 whole entry partner) above
T3 sequence (P48736 whole entry): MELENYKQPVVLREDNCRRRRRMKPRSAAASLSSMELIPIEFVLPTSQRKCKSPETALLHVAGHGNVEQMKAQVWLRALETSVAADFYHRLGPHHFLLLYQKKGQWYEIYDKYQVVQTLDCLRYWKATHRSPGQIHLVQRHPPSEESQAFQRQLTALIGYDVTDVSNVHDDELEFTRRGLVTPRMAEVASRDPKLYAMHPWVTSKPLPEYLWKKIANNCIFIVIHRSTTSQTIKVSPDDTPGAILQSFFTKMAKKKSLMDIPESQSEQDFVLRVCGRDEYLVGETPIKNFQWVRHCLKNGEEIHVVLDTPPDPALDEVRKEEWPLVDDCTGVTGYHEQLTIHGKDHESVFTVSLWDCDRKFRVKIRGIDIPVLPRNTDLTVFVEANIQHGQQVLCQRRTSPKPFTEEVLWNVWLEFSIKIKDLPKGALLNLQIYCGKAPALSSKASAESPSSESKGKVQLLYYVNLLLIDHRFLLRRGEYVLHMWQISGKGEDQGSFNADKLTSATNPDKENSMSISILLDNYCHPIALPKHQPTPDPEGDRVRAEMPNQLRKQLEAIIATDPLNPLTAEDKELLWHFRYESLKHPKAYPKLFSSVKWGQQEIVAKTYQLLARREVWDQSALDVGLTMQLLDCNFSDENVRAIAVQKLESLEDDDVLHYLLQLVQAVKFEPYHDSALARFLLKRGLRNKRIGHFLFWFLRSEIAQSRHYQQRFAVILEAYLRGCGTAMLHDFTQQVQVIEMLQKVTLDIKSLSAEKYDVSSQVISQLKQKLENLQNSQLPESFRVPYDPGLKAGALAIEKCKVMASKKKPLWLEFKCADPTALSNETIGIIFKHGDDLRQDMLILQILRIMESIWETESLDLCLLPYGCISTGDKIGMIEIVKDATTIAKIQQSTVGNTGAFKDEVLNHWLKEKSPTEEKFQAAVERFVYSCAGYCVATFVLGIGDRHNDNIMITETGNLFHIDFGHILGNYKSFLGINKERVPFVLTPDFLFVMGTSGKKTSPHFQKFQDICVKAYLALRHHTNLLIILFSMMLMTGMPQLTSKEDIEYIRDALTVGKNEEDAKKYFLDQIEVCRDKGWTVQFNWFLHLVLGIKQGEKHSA

`Cc1cccc2cc(Cn3nc(-c4cn[nH]c4)c4c(N)ncnc43)nc(OC3CCN(C(C)C)CC3)c12` [Compound 13]: the IC50 on PI3K α was less than 10000 nM; on PI3K δ, less than 100 nM; against PI3K γ, less than 10000 nM. Moreover, the EC50 with Balb/c splenic B cells is less than 100 nM.
In the case of `Cc1cccc2cc(Cn3nc(-c4ccc5oc(N)nc5c4)c4c(N)ncnc43)nc(OC3CCN(C)CC3)c12` [Compound 5], the IC50 on PI3K α, on PI3K δ and on PI3K γ was less than 100 nM throughout. In the assay on Balb/c splenic B cells, the EC50 is less than 100 nM.
Turning to `Cc1cccc2cc(Cn3nc(-c4ccc5oc(N)nc5c4)c4c(N)ncnc43)nc(N3CCCC3)c12` [Compound 26], the values for the half-maximal inhibitory concentration (IC50) on PI3K α, at PI3K δ and on PI3K γ were less than 1000 nM, less than 100 nM and less than 100 nM, respectively. Moreover, the EC50 in the assay on Balb/c splenic B cells was less than 1000 nM.
Consider `Cc1cccc2cc(C(C)Nc3ncnc4[nH]cnc34)nc(CCN3CCN(S(C)(=O)=O)CC3)c12` (stereo not shown) [Compound 50], for which the IC50 on PI3K α is less than 10000 nM; at PI3K δ, less than 100 nM; against PI3K γ, less than 10000 nM. Also, in the assay on Balb/c splenic B cells, the EC50 was less than 100 nM.
Take `CN(C)c1nc(Cn2nc(-c3ccc4oc(N)nc4c3)c3c(N)ncnc32)cc2ccccc12` [Compound 2]: the IC50 is less than 1000 nM at PI3K α, less than 100 nM at PI3K δ and less than 100 nM against PI3K γ. Moreover, the EC50 with Balb/c splenic B cells is less than 1000 nM.
For the compound `CC(C)N1CCC(Oc2nc(Cn3nc(-c4cn[nH]c4)c4c(N)ncnc43)cc3cccc(Cl)c23)CC1` [Compound 57], the 50% inhibitory concentration (IC50) at PI3K α is more than 10000 nM; on PI3K δ it was less than 100 nM; against PI3K γ it was more than 10000 nM. Further, the EC50 with Balb/c splenic B cells is less than 100 nM.
For `Cc1cccc2cc(Cn3nc(-c4ccc5oc(N)nc5c4)c4c(N)ncnc43)nc(OC3CCN(C(C)C)CC3)c12` [Compound 4], the IC50 on PI3K α is less than 1000 nM; at PI3K δ, less than 100 nM; at PI3K γ, less than 100 nM. In addition, the EC50 with Balb/c splenic B cells was less than 100 nM.
